Test results: patent US20060100431A1, “Biologically active compounds” (Amura Therapeutics Limited, priority 2002, published 2006)

Experiments:
Wild-type cruzipain = Wild-type cruzipain (Trypanosoma cruzi, UniProt P25779); assay: Trypanosoma cruzi cruzipain peptidase activity assay (Ki); assay type: biochemical; conditions: read-out: Ki, inhibitors of cruzain and cruzipains
Procedure, shortened: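 Native cruzipain from T. cruzi Dm28 epimastigotes, 2.5 nM, in 100 mM sodium phosphate pH 6.75 with 1 mM EDTA and 10 mM L-cysteine, 25 °C, DMSO <1%. Rates taken from continuous fluorogenic substrate read; Ki by regression assuming reversible pure-competitive inhibition.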

CPB2.8ΔCTE = biological target: T1, CPB2.8ΔCTE (Leishmania mexicana, UniProt P36400); assay: Leishmania mexicana cysteine protease B (CPB) peptidase activity assay (Ki); assay type: biochemical; conditions: Ki, inhibitors of Leismania mexicana CPB protease
T1 construct: Wild-type recombinant CPB without the C-terminal extention (i.e. CPB2.8ΔCTE); Dr. Jeremy Mottram (Wellcome Centre for Molecular Parasitology, University of Glasgow)
Procedure, shortened: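 Apparent Ki was derived by regression of activity against inhibitor concentration, assuming pure-competitive reversible binding. Reaction: 0.25 nM CPB lacking the C-terminal extension, pH 5.5 acetate buffer (1 mM EDTA, 200 mM NaCl, 10 mM DTT), 25 °C, followed by continuous substrate fluorescence.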

T1 sequence (P36400 126-343, stated change not applied): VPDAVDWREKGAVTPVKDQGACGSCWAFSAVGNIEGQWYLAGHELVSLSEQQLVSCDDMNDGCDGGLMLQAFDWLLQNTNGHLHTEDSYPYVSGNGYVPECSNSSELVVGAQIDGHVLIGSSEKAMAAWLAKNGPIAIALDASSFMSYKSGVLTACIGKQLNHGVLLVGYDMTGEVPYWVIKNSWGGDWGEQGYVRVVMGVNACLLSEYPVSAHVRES
Sequence of Wild-type cruzipain (P25779 whole entry): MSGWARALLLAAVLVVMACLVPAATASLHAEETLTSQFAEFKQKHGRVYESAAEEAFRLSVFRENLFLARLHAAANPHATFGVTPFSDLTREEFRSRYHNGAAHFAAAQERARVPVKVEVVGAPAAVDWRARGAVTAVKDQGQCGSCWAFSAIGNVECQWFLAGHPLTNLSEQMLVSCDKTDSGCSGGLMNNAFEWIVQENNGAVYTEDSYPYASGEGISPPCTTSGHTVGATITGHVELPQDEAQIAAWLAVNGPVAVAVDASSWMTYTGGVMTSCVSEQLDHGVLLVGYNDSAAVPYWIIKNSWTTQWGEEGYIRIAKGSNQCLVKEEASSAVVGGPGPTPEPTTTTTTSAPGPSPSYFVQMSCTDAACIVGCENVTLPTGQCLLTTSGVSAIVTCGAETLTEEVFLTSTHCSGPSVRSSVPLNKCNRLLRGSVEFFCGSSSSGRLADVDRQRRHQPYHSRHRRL

Row | Structure (SMILES) | Ki (Wild-type cruzipain) [µM] | Ki (CPB2.8ΔCTE) [µM]
1 | CC(C)C[C@H](NC(=O)c1ccc(N(C)C)cc1)C(=O)N1CC[C@@H]2[C@H]1C(=O)CN2C(=O)N1CCCC1 [Example 235, (3aR,6aS)-4-Dimethylamino-N-{(1S)-3-methyl-1-[6-oxo-4-(pyrrolidine-1-carbonyl)-hexahydro-pyrrolo[3,2-b]pyrrole-1-carbonyl]-butyl}-benzamide] | < 5 | < 5
2 | CC(=O)Nc1ccsc1C(=O)N1CC(=O)[C@@H]2[C@H]1CCN2C(=O)[C@H](CC(C)C)NC(=O)c1ccc(N(C)C)cc1 [Example 165, (3aR,6aS)-N-{(1S)-[4-(3-Acetylamino-thiophene-2-carbonyl)-6-oxo-hexahydro-pyrrolo[3,2-b]pyrrole-1-carbonyl]-3-methyl-butyl}-4-dimethylamino-benzamide] | < 5 | < 5
3 | CC(C)C[C@H](NC(=O)c1ccc(C(C)(C)C)cc1)C(=O)N1CC[C@@H]2[C@H]1C(=O)CN2C(=O)c1cccnc1 [Example 5, (3aR,6aS)-4-tert-Butyl-N-{(1S)-3-methyl-1-[6-oxo-4-(pyridine-3-carbonyl)-hexahydro-pyrrolo[3,2-b]pyrrole-1-carbonyl]-butyl}-benzamide] | < 5 | < 5
4 | CC(C)C[C@H](NC(=O)c1ccc(N(C)C)cc1)C(=O)N1CC[C@@H]2[C@H]1C(=O)CN2C(=O)c1ccc(F)c(F)c1 [Example 116, (3aR,6aS)-N-{(1S)-1-[4-(3,4-Difluoro-benzoyl)-6-oxo-hexahydro-pyrrolo[3,2-b]pyrrole-1-carbonyl]-3-methyl-butyl}-4-dimethylamino-benzamide] | < 5 | < 5
5 | CC(C)CCC(=O)N1CC(=O)[C@@H]2[C@H]1CCN2C(=O)[C@H](CC(C)C)NC(=O)c1ccc(C(C)(C)C)cc1 [Example 191, (3aR,6aS)-4-tert-Butyl-N-{(1S)-3-methyl-1-[4-(4-methyl-pentanoyl)-6-oxo-hexahydro-pyrrolo[3,2-b]pyrrole-1-carbonyl]-butyl}-benzamide] | < 5 | < 5
6 | CC(C)C[C@H](NC(=O)c1ccc(N(C)C)cc1)C(=O)N1CC[C@@H]2[C@H]1C(=O)CN2C(=O)C1CCCC1 [Example 134, (3aR,6aS)-N-[(1S)-1-(4-Cyclopentanecarbonyl-6-oxo-hexahydro-pyrrolo[3,2-b]pyrrole-1-carbonyl)-3-methyl-butyl]-4-dimethylamino-benzamide] | < 5 | < 5
7 | CC(C)C[C@H](NC(=O)c1ccc(N(C)C)cc1)C(=O)N1CC[C@@H]2[C@H]1C(=O)CN2C(=O)c1ccc(OC(F)(F)F)cc1 [Example 71, (3aR,6aS)-4-Dimethylamino-N-{(1S)-3-methyl-1-[6-oxo-(4-trifluoromethoxy-benzoyl)-hexahydro-pyrrolo[3,2-b]pyrrole-1-carbonyl]-butyl}-benzamide] | < 5 | < 5
8 | NCc1cccc(C(=O)N[C@@H](Cc2ccc(O)cc2)C(=O)N2CC[C@@H]3[C@H]2C(=O)CN3C(=O)c2csc3ccccc23)c1 [Example 331, (3aR,6aS)-3-Aminomethyl-N-[(1S)-2-[4-(benzo[b]thiophene-3-carbonyl)-6-oxo-hexahydro-pyrrolo[3,2-b]pyrrole-1-yl]-1-(4-hydroxy-benzyl)-2-oxo-ethyl]-benzamide] | < 5 | < 5
9 | CCCCC(=O)N1CC(=O)[C@@H]2[C@H]1CCN2C(=O)[C@H](CC(C)C)NC(=O)c1ccc(N(C)C)cc1 [Example 128, (3aR,6aS)-4-Dimethylamino-N-[(1S)-3-methyl-1-(6-oxo-4-pentanoyl-hexahydro-pyrrolo[3,2-b]pyrrole-1-carbonyl)-butyl]-benzamide] | < 5 | < 5
10 | CC(C)C[C@H](NC(=O)c1ccc(N(C)C)cc1)C(=O)N1CC[C@@H]2[C@H]1C(=O)CN2C(=O)c1ccco1 [Example 96, (3aR,6aS)-4-Dimethylamino-N-{(1S)-1-[4-(furan-2-carbonyl)-6-oxo-hexahydro-pyrrolo[3,2-b]pyrrole-1-carbonyl]-3-methyl-butyl}-benzamide] | < 5 | < 5
